# Test results published in patent US12624017B2, “Salt form of isoquinolinone type compound as rock inhibitor and preparation method therefor” (GUANGZHOU OCUSUN OPHTHALMIC BIOTECHNOLOGY CO., LTD., priority 2020, dated 2026).
# What was measured:
# [1] = Pharmacokinetic test in aqueous humor after eye drops; format: in vivo, New Zealand white rabbits; settings: eye drops 0.5 mg/eye
# Description: The compound was a prodrug molecule containing an ester functional group, which can be hydrolyzed into an active drug molecule (parent drug) under the action of abundant ester hydrolase in the eye tissue when administered with eye drops. In this experiment, the production rate of the active pharmaceutical ingredients in vivo and the exposure amount of the active pharmaceutical ingredients were detected.
# Male New Zealand white rabbits, aged 3 to 6 months, weighted 2.0 to 5.0 kg, purchased from Pizhou Oriental Breeding Co., Ltd.
# The used solvent was 1.2% hydroxypropyl methylcellulose E5/20.5% poloxamer P407/1.6% poloxamer P188.
# The dosage of eye drops was 0.5 mg/eye, administrated in both eyes. Aqueous humor samples were collected at 0.25 h, 0.5 h, 2 h, 4 h, 8 h, and 24 h after administration. All samples were quantitatively detected by liquid chromatography coupled with mass spectrometry-mass spectrometry in the aqueous humor of the experimental animals. The measured concentration values were calculated by WinNonlin non-compartment model according to the concentration-time data of aqueous humor, such as half-life, peak concentration, peak time, unit exposure amount of aqueous humor, etc.
# [2] = test system: New Zealand rabbits with normal intraocular pressure; assay: Intraocular pressure reduction, normal intraocular pressure, eye drops in both eyes for 14 days (Operation I); format: in vivo, New Zealand white rabbits; settings: for Change in intraocular pressure: vs negative control
# Description: An intraocular pressure reduction effect and potential ocular toxicity of the compound of formula (I) were inspected with rabbits with normal intraocular pressure by repeated administration of eye drops for 14 days.
# Male New Zealand white rabbits, aged 97 to 127 days, weighted 2.6-3.5 kg, purchased from Pizhou Oriental Breeding Co., Ltd.
# The Male New Zealand white rabbits were randomly divided into 7 groups according to body weights, 6 rabbits/group. The animals in Groups 1 to 7 were administrated dropwise with a solvent/control/test article in both eyes in an administration volume of 50 μL/eye, once a day for 14 consecutive days, and the day of first administration was recorded as Day 1. The intraocular pressures of the animals were measured before administration, as well as at 1, 2, 4, 6, 8 and 10 h after administration, respectively. On Days 2 to 14, the intraocular pressures of animals in the K-115 administration group were measured at 1 h after daily administration; and intraocular pressures of the animals in the remaining groups were measured at 4 h after daily administration.
# [3] = 0.5 mg/mL once a day, Day 2, 4 h after daily administration
# [4] = 0.5 mg/mL once a day, Day 3, 4 h after daily administration
# [5] = 0.5 mg/mL once a day, Day 4, 4 h after daily administration
# [6] = 0.5 mg/mL once a day, Day 5, 4 h after daily administration
# [7] = 0.5 mg/mL once a day, Day 6, 4 h after daily administration
# [8] = 0.5 mg/mL once a day, Day 7, 4 h after daily administration
# [9] = 0.5 mg/mL, Day 1, 1 h after administration
# [10] = 0.5 mg/mL, Day 1, 2 h after administration
# [11] = 0.5 mg/mL, Day 1, 4 h after administration
# [12] = 0.5 mg/mL, Day 1, 6 h after administration
# [13] = 0.5 mg/mL, Day 1, 8 h after administration
# [14] = 0.5 mg/mL, Day 1, 10 h after administration
# [15] = 0.5 mg/mL, Day 1, before administration
# [16] = 1.0 mg/mL once a day, Day 2, 4 h after daily administration
# [17] = 1.0 mg/mL once a day, Day 3, 4 h after daily administration
# [18] = 1.0 mg/mL once a day, Day 4, 4 h after daily administration
# [19] = 1.0 mg/mL once a day, Day 5, 4 h after daily administration
# [20] = 1.0 mg/mL once a day, Day 6, 4 h after daily administration
# [21] = 1.0 mg/mL once a day, Day 7, 4 h after daily administration
# [22] = 1.0 mg/mL, Day 1, 1 h after administration
# [23] = 1.0 mg/mL, Day 1, 2 h after administration
# [24] = 1.0 mg/mL, Day 1, 4 h after administration
# [25] = 1.0 mg/mL, Day 1, 6 h after administration
# [26] = 1.0 mg/mL, Day 1, 8 h after administration
# [27] = 1.0 mg/mL, Day 1, 10 h after administration
# [28] = 1.0 mg/mL, Day 1, before administration
# [29] = 2.0 mg/mL once a day, Day 2, 4 h after daily administration
# [30] = 2.0 mg/mL once a day, Day 3, 4 h after daily administration
# [31] = 2.0 mg/mL once a day, Day 4, 4 h after daily administration
# [32] = 2.0 mg/mL once a day, Day 5, 4 h after daily administration
# [33] = 2.0 mg/mL once a day, Day 6, 4 h after daily administration
# [34] = 2.0 mg/mL once a day, Day 7, 4 h after daily administration
compound,measurement,setting,value
Cc1ccc(C(=O)OCn2cc(C)c3c(S(=O)(=O)N4CC[C@H](N)C4)cccc3c2=O)c(C)c1 [Compound of formula (I)],Exposure amount of the active drug (conclusion),[1],significantly increased
same,Average intraocular pressure in both eyes,[2]; [3],7.94 mmHg
same,Change in intraocular pressure,[2]; [3],3.14 mmHg
same,Average intraocular pressure in both eyes,[2]; [4],7.31 mmHg
same,Change in intraocular pressure,[2]; [4],3.08 mmHg
same,Average intraocular pressure in both eyes,[2]; [5],7.78 mmHg
same,Change in intraocular pressure,[2]; [5],2.83 mmHg
same,Average intraocular pressure in both eyes,[2]; [6],7.19 mmHg
same,Change in intraocular pressure,[2]; [6],3.78 mmHg
same,Average intraocular pressure in both eyes,[2]; [7],6.61 mmHg
same,Change in intraocular pressure,[2]; [7],2.7 mmHg
same,Average intraocular pressure in both eyes,[2]; [8],6.00 mmHg
same,Change in intraocular pressure,[2]; [8],4.06 mmHg
same,Change in intraocular pressure,"[2]; 0.5 mg/mL once a day, Day 8, 4 h after daily administration",4.2 mmHg
same,Change in intraocular pressure,"[2]; 0.5 mg/mL once a day, Day 9, 4 h after daily administration",3.25 mmHg
same,Change in intraocular pressure,"[2]; 0.5 mg/mL once a day, Day 10, 4 h after daily administration",3 mmHg
same,Change in intraocular pressure,"[2]; 0.5 mg/mL once a day, Day 11, 4 h after daily administration",3.25 mmHg
same,Change in intraocular pressure,"[2]; 0.5 mg/mL once a day, Day 12, 4 h after daily administration",3.28 mmHg
same,Change in intraocular pressure,"[2]; 0.5 mg/mL once a day, Day 13, 4 h after daily administration",3.31 mmHg
same,Change in intraocular pressure,"[2]; 0.5 mg/mL once a day, Day 14, 4 h after daily administration",3.72 mmHg
same,Average intraocular pressure in both eyes,[2]; [9],8.83 mmHg
same,Change in intraocular pressure,[2]; [9],1.48 mmHg
same,Average intraocular pressure in both eyes,[2]; [10],7.56 mmHg
same,Change in intraocular pressure,[2]; [10],3.41 mmHg
same,Average intraocular pressure in both eyes,[2]; [11],7.11 mmHg
same,Change in intraocular pressure,[2]; [11],4.2 mmHg
same,Average intraocular pressure in both eyes,[2]; [12],9.61 mmHg
same,Change in intraocular pressure,[2]; [12],2.33 mmHg
same,Average intraocular pressure in both eyes,[2]; [13],9.06 mmHg
same,Change in intraocular pressure,[2]; [13],3.91 mmHg
same,Average intraocular pressure in both eyes,[2]; [14],9.97 mmHg
same,Change in intraocular pressure,[2]; [14],4.45 mmHg
same,Average intraocular pressure in both eyes,[2]; [15],10.11 mmHg
same,Change in intraocular pressure,[2]; [15],−0.22 mmHg
same,Average intraocular pressure in both eyes,[2]; [16],7.64 mmHg
same,Change in intraocular pressure,[2]; [16],3.44 mmHg
same,Average intraocular pressure in both eyes,[2]; [17],7.50 mmHg
same,Change in intraocular pressure,[2]; [17],2.89 mmHg
same,Average intraocular pressure in both eyes,[2]; [18],7.33 mmHg
same,Change in intraocular pressure,[2]; [18],3.28 mmHg
same,Average intraocular pressure in both eyes,[2]; [19],7.44 mmHg
same,Change in intraocular pressure,[2]; [19],3.53 mmHg
same,Average intraocular pressure in both eyes,[2]; [20],6.92 mmHg
same,Change in intraocular pressure,[2]; [20],2.39 mmHg
same,Average intraocular pressure in both eyes,[2]; [21],7.00 mmHg
same,Change in intraocular pressure,[2]; [21],3.06 mmHg
same,Change in intraocular pressure,"[2]; 1.0 mg/mL once a day, Day 8, 4 h after daily administration",4.03 mmHg
same,Change in intraocular pressure,"[2]; 1.0 mg/mL once a day, Day 9, 4 h after daily administration",2.5 mmHg
same,Change in intraocular pressure,"[2]; 1.0 mg/mL once a day, Day 10, 4 h after daily administration",2.44 mmHg
same,Change in intraocular pressure,"[2]; 1.0 mg/mL once a day, Day 11, 4 h after daily administration",2.19 mmHg
same,Change in intraocular pressure,"[2]; 1.0 mg/mL once a day, Day 12, 4 h after daily administration",2.64 mmHg
same,Change in intraocular pressure,"[2]; 1.0 mg/mL once a day, Day 13, 4 h after daily administration",3.33 mmHg
same,Change in intraocular pressure,"[2]; 1.0 mg/mL once a day, Day 14, 4 h after daily administration",3.53 mmHg
same,Average intraocular pressure in both eyes,[2]; [22],7.08 mmHg
same,Change in intraocular pressure,[2]; [22],3.23 mmHg
same,Average intraocular pressure in both eyes,[2]; [23],6.67 mmHg
same,Change in intraocular pressure,[2]; [23],4.3 mmHg
same,Average intraocular pressure in both eyes,[2]; [24],6.44 mmHg
same,Change in intraocular pressure,[2]; [24],4.87 mmHg
same,Average intraocular pressure in both eyes,[2]; [25],8.00 mmHg
same,Change in intraocular pressure,[2]; [25],3.94 mmHg
same,Average intraocular pressure in both eyes,[2]; [26],9.22 mmHg
same,Change in intraocular pressure,[2]; [26],3.75 mmHg
same,Average intraocular pressure in both eyes,[2]; [27],10.56 mmHg
same,Change in intraocular pressure,[2]; [27],3.86 mmHg
same,Average intraocular pressure in both eyes,[2]; [28],9.94 mmHg
same,Change in intraocular pressure,[2]; [28],−0.05 mmHg
same,Average intraocular pressure in both eyes,[2]; [29],7.03 mmHg
same,Change in intraocular pressure,[2]; [29],4.05 mmHg
same,Average intraocular pressure in both eyes,[2]; [30],7.25 mmHg
same,Change in intraocular pressure,[2]; [30],3.14 mmHg
same,Average intraocular pressure in both eyes,[2]; [31],6.86 mmHg
same,Change in intraocular pressure,[2]; [31],3.75 mmHg
same,Average intraocular pressure in both eyes,[2]; [32],6.47 mmHg
same,Change in intraocular pressure,[2]; [32],4.5 mmHg
same,Average intraocular pressure in both eyes,[2]; [33],5.92 mmHg
same,Change in intraocular pressure,[2]; [33],3.39 mmHg
same,Average intraocular pressure in both eyes,[2]; [34],5.78 mmHg
same,Change in intraocular pressure,[2]; [34],4.28 mmHg
same,Change in intraocular pressure,"[2]; 2.0 mg/mL once a day, Day 8, 4 h after daily administration",4.53 mmHg
same,Change in intraocular pressure,"[2]; 2.0 mg/mL once a day, Day 9, 4 h after daily administration",3.72 mmHg
same,Change in intraocular pressure,"[2]; 2.0 mg/mL once a day, Day 10, 4 h after daily administration",3.81 mmHg
same,Change in intraocular pressure,"[2]; 2.0 mg/mL once a day, Day 11, 4 h after daily administration",3.66 mmHg
same,Change in intraocular pressure,"[2]; 2.0 mg/mL once a day, Day 12, 4 h after daily administration",3.5 mmHg
